Assay results: the NIST ThermoML archive (doi:10.1016/j.tca.2014.06.026)

Assay: xn = mol fraction of the nth substance listed
Conditions: 101 kPa, Liquid; for speed of sound: Frequency=2 MHz, Sing-around technique in a fixed-path interferometer; for viscosity: Oscillating disk viscometry; for mass density: Vibrating tube method

C1=CCCCC1 [cyclohexene] + CN1CCCC1=O
Conditions | mass density [kg/m3] | speed of sound [m/s] | viscosity [mPa·s]
303.15 K, x2 = 0 | 801.81 | 1252.1 | 0.581
303.15 K, x2 = 0.1052 | 818.56 | 1267.5 | 0.612
303.15 K, x2 = 0.2091 | 834.84 | 1285.6 | 0.653
303.15 K, x2 = 0.3119 | 851.21 | 1307.1 | 0.698
303.15 K, x2 = 0.4135 | 868.75 | 1330.4 | 0.748
303.15 K, x2 = 0.514 | 889.05 | 1356.2 | 0.812
303.15 K, x2 = 0.6134 | 912.45 | 1384.5 | 0.897
303.15 K, x2 = 0.7116 | 938.12 | 1417.6 | 1.009
303.15 K, x2 = 0.8088 | 964.81 | 1456.8 | 1.148
303.15 K, x2 = 0.9049 | 992.11 | 1502.7 | 1.315
308.15 K, x2 = 0 | 797.25 | 1224.8 | 0.549
308.15 K, x2 = 0.1052 | 811.04 | 1240.5 | 0.579
308.15 K, x2 = 0.2091 | 827.32 | 1258.2 | 0.618
308.15 K, x2 = 0.3119 | 844.1 | 1278.6 | 0.663
308.15 K, x2 = 0.4135 | 862.03 | 1301.5 | 0.715
308.15 K, x2 = 0.514 | 882.54 | 1326.4 | 0.775
308.15 K, x2 = 0.6134 | 906.06 | 1355.1 | 0.853
308.15 K, x2 = 0.7116 | 931.63 | 1388.3 | 0.954
308.15 K, x2 = 0.8088 | 957.89 | 1426.8 | 1.081
308.15 K, x2 = 0.9049 | 985.56 | 1472.5 | 1.235
313.15 K, x2 = 0 | 792.61 | 1196.6 | 0.516
313.15 K, x2 = 0.1052 | 804.12 | 1212.4 | 0.551
313.15 K, x2 = 0.2091 | 819.12 | 1230.5 | 0.587
313.15 K, x2 = 0.3119 | 836.04 | 1250.4 | 0.63
313.15 K, x2 = 0.4135 | 854.81 | 1273.5 | 0.68
313.15 K, x2 = 0.514 | 875.73 | 1298.8 | 0.742
313.15 K, x2 = 0.6134 | 899.06 | 1327.1 | 0.818
313.15 K, x2 = 0.7116 | 924.14 | 1360.3 | 0.914
313.15 K, x2 = 0.8088 | 950.51 | 1398.7 | 1.031
313.15 K, x2 = 0.9049 | 979.38 | 1444.1 | 1.171
318.15 K, x2 = 0 | 788.02 | 1169.6 | 0.488
318.15 K, x2 = 0.1052 | 798.05 | 1185.2 | 0.522
318.15 K, x2 = 0.2091 | 813.05 | 1202.2 | 0.558
318.15 K, x2 = 0.3119 | 829.52 | 1222.2 | 0.597
318.15 K, x2 = 0.4135 | 847.61 | 1245.2 | 0.642
318.15 K, x2 = 0.514 | 868.15 | 1270.4 | 0.698
318.15 K, x2 = 0.6134 | 891.64 | 1298.6 | 0.771
318.15 K, x2 = 0.7116 | 917.16 | 1330.3 | 0.856
318.15 K, x2 = 0.8088 | 943.71 | 1369.2 | 0.956
318.15 K, x2 = 0.9049 | 972.27 | 1416.1 | 1.072

NC1CCCCC1 [cyclohexylamine] + CN1CCCC1=O
Conditions | mass density [kg/m3] | speed of sound [m/s] | viscosity [mPa·s]
303.15 K, x2 = 0 | 857.71 | 1397.8 | 1.797
303.15 K, x2 = 0.1171 | 877.49 | 1424.2 | 1.791
303.15 K, x2 = 0.2299 | 896.91 | 1448.4 | 1.789
303.15 K, x2 = 0.3385 | 915.83 | 1469.1 | 1.784
303.15 K, x2 = 0.4432 | 933.86 | 1487.8 | 1.773
303.15 K, x2 = 0.5442 | 950.84 | 1504.3 | 1.754
303.15 K, x2 = 0.6417 | 966.69 | 1518.1 | 1.727
303.15 K, x2 = 0.7358 | 981.66 | 1530.2 | 1.693
303.15 K, x2 = 0.8268 | 995.81 | 1540.3 | 1.648
303.15 K, x2 = 0.9149 | 1009.73 | 1548.2 | 1.592
308.15 K, x2 = 0 | 853.14 | 1379.2 | 1.704
308.15 K, x2 = 0.1171 | 873.25 | 1406.8 | 1.69
308.15 K, x2 = 0.2299 | 892.71 | 1429.4 | 1.678
308.15 K, x2 = 0.3385 | 911.69 | 1449.1 | 1.668
308.15 K, x2 = 0.4432 | 929.76 | 1467.1 | 1.655
308.15 K, x2 = 0.5442 | 946.83 | 1483.1 | 1.636
308.15 K, x2 = 0.6417 | 962.86 | 1496.5 | 1.607
308.15 K, x2 = 0.7358 | 977.92 | 1507.7 | 1.569
308.15 K, x2 = 0.8268 | 992.5 | 1517.2 | 1.522
308.15 K, x2 = 0.9149 | 1006.41 | 1524.6 | 1.47
313.15 K, x2 = 0 | 848.61 | 1360.6 | 1.617
313.15 K, x2 = 0.1171 | 869.06 | 1389.2 | 1.6
313.15 K, x2 = 0.2299 | 888.52 | 1411.4 | 1.588
313.15 K, x2 = 0.3385 | 907.42 | 1430.5 | 1.575
313.15 K, x2 = 0.4432 | 925.48 | 1447.6 | 1.56
313.15 K, x2 = 0.5442 | 942.64 | 1462.5 | 1.541
313.15 K, x2 = 0.6417 | 958.87 | 1475.1 | 1.514
313.15 K, x2 = 0.7358 | 974.13 | 1485.7 | 1.477
313.15 K, x2 = 0.8268 | 988.74 | 1494.6 | 1.432
313.15 K, x2 = 0.9149 | 1002.53 | 1500.8 | 1.38
318.15 K, x2 = 0 | 844.07 | 1342 | 1.506
318.15 K, x2 = 0.1171 | 864.89 | 1371.7 | 1.484
318.15 K, x2 = 0.2299 | 884.43 | 1393.8 | 1.463
318.15 K, x2 = 0.3385 | 903.34 | 1412.2 | 1.442
318.15 K, x2 = 0.4432 | 921.45 | 1428.7 | 1.422
318.15 K, x2 = 0.5442 | 938.47 | 1443.2 | 1.401
318.15 K, x2 = 0.6417 | 954.68 | 1455.4 | 1.375
318.15 K, x2 = 0.7358 | 970.14 | 1465.4 | 1.341
318.15 K, x2 = 0.8268 | 984.78 | 1473.6 | 1.298
318.15 K, x2 = 0.9149 | 998.55 | 1477.8 | 1.251

OC1CCCCC1 [cyclohexanol] + CN1CCCC1=O
Conditions | mass density [kg/m3] | speed of sound [m/s] | viscosity [mPa·s]
303.15 K, x2 = 0 | 941.32 | 1443.2 | 41.07
303.15 K, x2 = 0.1088 | 952.25 | 1462.3 | 36.8
303.15 K, x2 = 0.2155 | 962.68 | 1480.5 | 32.6
303.15 K, x2 = 0.3201 | 973.14 | 1495.7 | 28.48
303.15 K, x2 = 0.4228 | 983.38 | 1508.8 | 24.44
303.15 K, x2 = 0.5235 | 992.24 | 1520.5 | 20.47
303.15 K, x2 = 0.6223 | 999.61 | 1530.5 | 16.55
303.15 K, x2 = 0.7194 | 1005.72 | 1538.4 | 12.7
303.15 K, x2 = 0.8146 | 1011.65 | 1544.3 | 8.912
303.15 K, x2 = 0.9081 | 1017.47 | 1549.2 | 5.186
308.15 K, x2 = 0 | 937.23 | 1419.6 | 27.95
308.15 K, x2 = 0.1088 | 948.65 | 1440.8 | 25.09
308.15 K, x2 = 0.2155 | 959.48 | 1458.7 | 22.27
308.15 K, x2 = 0.3201 | 970.04 | 1473.4 | 19.52
308.15 K, x2 = 0.4228 | 979.96 | 1486.2 | 16.81
308.15 K, x2 = 0.5235 | 988.83 | 1497.5 | 14.15
308.15 K, x2 = 0.6223 | 996.39 | 1506.9 | 11.52
308.15 K, x2 = 0.7194 | 1002.69 | 1515.1 | 8.928
308.15 K, x2 = 0.8146 | 1008.39 | 1521.2 | 6.381
308.15 K, x2 = 0.9081 | 1014.23 | 1525.2 | 3.878
313.15 K, x2 = 0 | 933.48 | 1395.2 | 16.66
313.15 K, x2 = 0.1088 | 945.29 | 1418.3 | 15.01
313.15 K, x2 = 0.2155 | 956.55 | 1436.2 | 13.39
313.15 K, x2 = 0.3201 | 967.18 | 1450.8 | 11.81
313.15 K, x2 = 0.4228 | 976.72 | 1463.7 | 10.25
313.15 K, x2 = 0.5235 | 985.29 | 1475.1 | 8.714
313.15 K, x2 = 0.6223 | 992.87 | 1484.6 | 7.194
313.15 K, x2 = 0.7194 | 999.41 | 1492.4 | 5.69
313.15 K, x2 = 0.8146 | 1005.24 | 1498.2 | 4.211
313.15 K, x2 = 0.9081 | 1010.33 | 1500.6 | 2.76
318.15 K, x2 = 0 | 928.11 | 1370.8 | 8.888
318.15 K, x2 = 0.1088 | 940.43 | 1395.7 | 8.064
318.15 K, x2 = 0.2155 | 952.24 | 1413.7 | 7.26
318.15 K, x2 = 0.3201 | 963.21 | 1428.6 | 6.472
318.15 K, x2 = 0.4228 | 972.85 | 1441.9 | 5.694
318.15 K, x2 = 0.5235 | 981.32 | 1453.3 | 4.926
318.15 K, x2 = 0.6223 | 988.87 | 1462.8 | 4.163
318.15 K, x2 = 0.7194 | 995.46 | 1471.1 | 3.406
318.15 K, x2 = 0.8146 | 1001.47 | 1476.7 | 2.658
318.15 K, x2 = 0.9081 | 1006.79 | 1477.6 | 1.924
